Source: ChEMBL document CHEMBL4308841, “Synthesis, in vitro antiproliferative activity, and kinase inhibitory effects of pyrazole-containing diarylureas and diarylamides” (Eur J Med Chem, 2018)
pIC50: −log10 of the molar value.

Columns and labels:
[1] = test system: MDA-MB-435; test: Growth inhibition of human MDA-MB-435 cells assessed as cell growth at 0.1 uM incubated for 48 hrs by sulforhodamine B assay relative to control; assay type: functional; settings: MDA-MB-435, 48 h, read-out: Activity
[2] = test system: NCI/ADR-RES; test: Growth inhibition of human NCI/ADR-RES cells assessed as cell growth at 0.01 uM incubated for 48 hrs by sulforhodamine B assay relative to control; assay type: functional; settings: read-out: Activity
[3] = test system: BT-549; test: Growth inhibition of human BT549 cells assessed as cell growth at 100 uM incubated for 48 hrs by sulforhodamine B assay relative to control; assay type: functional; settings: BT-549, 48 h, read-out: Activity
[4] = test system: NCI-H522; test: Growth inhibition of human NCI-H522 cells incubated for 48 hrs by sulforhodamine B assay; assay type: functional, cell-based; settings: NCI-H522, 48 h
[5] = test system: HCT-15; test: Growth inhibition of human HCT15 cells assessed as cell growth at 0.01 uM incubated for 48 hrs by sulforhodamine B assay relative to control; assay type: functional; settings: HCT-15, 48 h, read-out: Activity
[6] = test system: U-251; test: Growth inhibition of human U251 cells assessed as cell growth at 0.01 uM incubated for 48 hrs by sulforhodamine B assay relative to control; assay type: functional; settings: U-251, 48 h, read-out: Activity
[7] = test system: CAKI-1; test: Growth inhibition of human Caki1 cells assessed as cell growth at 0.01 uM incubated for 48 hrs by sulforhodamine B assay relative to control; assay type: functional; settings: CAKI-1, 48 h, read-out: Activity
[8] = test system: NCI/ADR-RES; test: Growth inhibition of human NCI/ADR-RES cells incubated for 48 hrs by sulforhodamine B assay; assay type: functional, cell-based
[9] = test system: KM12; test: Growth inhibition of human KM12 cells assessed as cell growth at 100 uM incubated for 48 hrs by sulforhodamine B assay relative to control; assay type: functional; settings: KM12, 48 h, read-out: Activity
[10] = test system: SR; test: Growth inhibition of human SR cells assessed as cell growth at 0.1 uM incubated for 48 hrs by sulforhodamine B assay relative to control; assay type: functional; settings: read-out: Activity
[11] = test system: NCI-H460; test: Growth inhibition of human NCI-H460 cells assessed as cell growth at 1 uM incubated for 48 hrs by sulforhodamine B assay relative to control; assay type: functional; settings: NCI-H460, 48 h, read-out: Activity
[12] = test system: HCT-15; test: Growth inhibition of human HCT15 cells assessed as cell growth at 1 uM incubated for 48 hrs by sulforhodamine B assay relative to control; assay type: functional; settings: HCT-15, 48 h, read-out: Activity
[13] = test system: ACHN; test: Growth inhibition of human ACHN cells assessed as cell growth at 100 uM incubated for 48 hrs by sulforhodamine B assay relative to control; assay type: functional; settings: read-out: Activity
[14] = test system: UO-31; test: Growth inhibition of human UO31 cells assessed as cell growth at 0.01 uM incubated for 48 hrs by sulforhodamine B assay relative to control; assay type: functional; settings: UO-31, 48 h, read-out: Activity
[15] = test system: A498; test: Growth inhibition of human A498 cells assessed as cell growth at 0.1 uM incubated for 48 hrs by sulforhodamine B assay relative to control; assay type: functional; settings: A498, 48 h, read-out: Activity
[16] = test system: CAKI-1; test: Growth inhibition of human Caki1 cells assessed as cell growth at 100 uM incubated for 48 hrs by sulforhodamine B assay relative to control; assay type: functional; settings: CAKI-1, 48 h, read-out: Activity
[17] = test system: M14; test: Growth inhibition of human M14 cells assessed as cell growth at 1 uM incubated for 48 hrs by sulforhodamine B assay relative to control; assay type: functional; settings: M14, 48 h, read-out: Activity
[18] = test system: U-251; test: Growth inhibition of human U251 cells assessed as cell growth at 1 uM incubated for 48 hrs by sulforhodamine B assay relative to control; assay type: functional; settings: U-251, 48 h, read-out: Activity
[19] = test system: MOLT-4; test: Growth inhibition of human MOLT4 cells assessed as cell growth at 0.1 uM incubated for 48 hrs by sulforhodamine B assay relative to control; assay type: functional; settings: MOLT-4, 48 h, read-out: Activity
[20] = test system: OVCAR-8; test: Growth inhibition of human OVCAR8 cells incubated for 48 hrs by sulforhodamine B assay; assay type: functional, cell-based; settings: OVCAR-8, 48 h
[21] = test system: SK-MEL-28; test: Growth inhibition of human SK-MEL-28 cells assessed as cell growth at 0.01 uM incubated for 48 hrs by sulforhodamine B assay relative to control; assay type: functional; settings: SK-MEL-28, 48 h, read-out: Activity
[22] = test system: NCI-H460; test: Growth inhibition of human NCI-H460 cells assessed as cell growth at 0.01 uM incubated for 48 hrs by sulforhodamine B assay relative to control; assay type: functional; settings: NCI-H460, 48 h, read-out: Activity
[23] = test system: HCT-116; test: Growth inhibition of human HCT116 cells assessed as cell growth at 1 uM incubated for 48 hrs by sulforhodamine B assay relative to control; assay type: functional; settings: HCT-116, 48 h, read-out: Activity
[24] = test system: SW-620; test: Growth inhibition of human SW620 cells assessed as cell growth at 1 uM incubated for 48 hrs by sulforhodamine B assay relative to control; assay type: functional; settings: SW-620, 48 h, read-out: Activity
[25] = test system: Malme-3M; test: Growth inhibition of human MALME-3M cells incubated for 48 hrs by sulforhodamine B assay; assay type: functional, cell-based
[26] = test system: T47D; test: Growth inhibition of human T47D cells assessed as cell growth at 100 uM incubated for 48 hrs by sulforhodamine B assay relative to control; assay type: functional; settings: read-out: Activity
[27] = test system: HCT-116; test: Growth inhibition of human HCT116 cells assessed as cell growth at 100 uM incubated for 48 hrs by sulforhodamine B assay relative to control; assay type: functional; settings: HCT-116, 48 h, read-out: Activity
[28] = test system: SW-620; test: Growth inhibition of human SW620 cells assessed as cell growth at 100 uM incubated for 48 hrs by sulforhodamine B assay relative to control; assay type: functional; settings: SW-620, 48 h, read-out: Activity
[29] = test system: RPMI-8226; test: Growth inhibition of human RPMI8226 cells incubated for 48 hrs by sulforhodamine B assay; assay type: functional, cell-based; settings: RPMI-8226, 48 h
[30] = test system: BT-549; test: Growth inhibition of human BT549 cells assessed as cell growth at 1 uM incubated for 48 hrs by sulforhodamine B assay relative to control; assay type: functional; settings: BT-549, 48 h, read-out: Activity
[31] = test system: SF-539; test: Growth inhibition of human SF539 cells assessed as cell growth at 0.1 uM incubated for 48 hrs by sulforhodamine B assay relative to control; assay type: functional; settings: SF-539, 48 h, read-out: Activity
[32] = test system: Hs-578T; test: Growth inhibition of human Hs578T cells assessed as cell growth at 0.01 uM incubated for 48 hrs by sulforhodamine B assay relative to control; assay type: functional; settings: read-out: Activity
[33] = read-out: LC50 (the source's name)
[34] = read-out: pLC50 (the source's name) (converted)

## COc1cc(Cl)cc(-c2nn(-c3cccc(NC(=O)Nc4cccc(C(F)(F)F)c4)c3)cc2-c2ccncc2)c1
[1]
  growth at 0.1 µM: 97%
[2]
  growth at 0.01 µM: 100%
[3]
  growth at 100 µM: -48%
[4]; read-out: GI50
  GI50: 0.445 µM
[4]; [33]
  CC50: 10 µM
[4]; read-out: TGI
  TGI: 25.1 µM
[4]; [34]
  CC50: 10.2 µM
[5]
  growth at 0.01 µM: 92%
[6]
  growth at 0.01 µM: 95%
[7]
  growth at 0.01 µM: 102%
[8]; read-out: GI50
  GI50: 1.65 µM
[8]; [33]
  CC50: > 100 µM
[8]; read-out: TGI
  TGI: 75.1 µM
[8]; read-out: pGI50 (converted)
  GI50: 1.66 µM
[8]; [34]
  CC50: > 100 µM
[8]; read-out: pTGI (converted)
  TGI: 7.76 µM
[9]
  growth at 100 µM: -48%
[10]
  growth at 0.1 µM: 93%
[11]
  growth at 1 µM: 45%
[12]
  growth at 1 µM: 57%
[13]
  growth at 100 µM: -9%
[14]
  growth at 0.01 µM: 91%
[15]
  growth at 0.1 µM: 92%
[16]
  growth at 100 µM: -20%
[17]
  growth at 1 µM: 64%
[18]
  growth at 1 µM: 47%
[19]
  growth at 0.1 µM: 55%
[20]; read-out: GI50
  GI50: 1.12 µM
[20]; [33]
  CC50: > 100 µM
[20]; read-out: TGI
  TGI: 45.8 µM
[20]; read-out: pGI50 (converted)
  GI50: 1.12 µM
[20]; [34]
  CC50: > 100 µM
[20]; read-out: pTGI (converted)
  TGI: 4.9 µM
[21]
  growth at 0.01 µM: 99%
[22]
  growth at 0.01 µM: 102%
[23]
  growth at 1 µM: 43%
[24]
  growth at 1 µM: 74%
[25]; read-out: GI50
  GI50: 1.79 µM
[25]; [33]
  CC50: > 100 µM
[25]; read-out: TGI
  TGI: 59.1 µM
[25]; read-out: pGI50 (converted)
  GI50: 1.78 µM
[25]; [34]
  CC50: > 100 µM
[25]; read-out: pTGI (converted)
  TGI: 5.89 µM
[26]
  growth at 100 µM: -25%
[27]
  growth at 100 µM: -81%
[28]
  growth at 100 µM: -11%
[29]
  pIC50: 6.37
[29]; read-out: GI50
  GI50: 0.43 µM
[29]; [33]
  CC50: > 100 µM
[29]; read-out: TGI
  TGI: 23 µM
[29]; read-out: pGI50 (converted)
  GI50: 0.427 µM
[29]; [34]
  CC50: > 100 µM
[29]; read-out: pTGI (converted)
  TGI: 2.29 µM
[30]
  growth at 1 µM: 93%
[31]
  growth at 0.1 µM: 93%
[32]
  growth at 0.01 µM: 99%
